Series [1] is described as follows: Kinetic study in dogs (oral administration, plasma levodopa). As to conditions: dog, in vivo, po, 3 mg/kg. From the text: The relationship between the blood concentration of levodopa and side effects in patients who take levodopa has been gradually elucidated. […] In order to reduce the number of doses of levodopa and avoid side effects such as dyskinesia and wearing-off in patients who take levodopa, it is necessary to maintain the blood concentration of levodopa within a therapeutic range as long as possible.
These levodopa prodrugs are prodrugs containing an ester bond, and therefore, it is considered that among a number of enzymes, carboxyesterase plays the most important role in the process of producing levodopa by metabolizing the compound after the compound is administered in vivo. Therefore, as an animal species to be used for performing a kinetic study, dogs in which the organ distribution of carboxyesterase is most similar to that of humans were selected as subjects for evaluation.
The thus obtained drug solution was administered by gavage through a gastric tube into the stomach of dogs (male beagle dogs) which were fasted from the day before the administration. At 15 and 30 minutes, and 1, 2, 4, 6, and 8 hours after administration of the drug solution, 1 mL of blood was collected from a cephalic vein with a heparinized syringe. Immediately after the collection, the collected blood was centrifuged in a desktop centrifuge at 14500 rpm for 45 seconds. Then, acetonitrile containing 0.1125% formic acid was added to the thus obtained plasma in an amount as twice as large as the volume of the plasma, followed by stirring, and then, the resulting sample was stored at −20° C. until measurement.
The sample was thawed on the measurement day, followed by stirring and centrifugation at 13000 rpm for 3 minutes (at 4° C.). The resulting supernatant was filtered and the filtrate was analyzed by LC/MS/MS. The analysis was performed by LC/MS/MS under the following conditions.
Measurement Apparatus: API-5000 (manufactured by Applied Biosystems, Inc.)
Analytical column: CAPCELL PAK CR (1:4) (4.6 mm, I.D.×250 mm, 5 μm)
Analytical column temperature: 40° C.
Mobile phase: A: 5 mM ammonium formate (pH 3.9), B: acetonitrile (A/B=17/3)
Detection (levodopa): m/z (precursor): 196.19, m/z (product): 134.99
DP (Declustering Potential): −60
CE (Collision Energy): −25
CXP (Collision Cell Exit Potential): −17
Incidentally, the numerical value in the column which indicates the dose expressed in terms of levodopa refers to a dose equivalent to that of levodopa.

The nature of series [2]: Kinetic study in dogs (combination use with dopa decarboxylase inhibitor carbidopa). The format is in vivo, dogs (male beagle dogs). Particulars: dogs given carbidopa 60 mg/kg; oral Example 5 18.6 mg/kg (6 mg/kg expressed in terms of levodopa). Here is the method:
(3) Kinetic Study in Dogs (Combination Use with Dopa Decarboxylase Inhibitor (DCI)) […] As the DCI, carbidopa was used. […] The preparation of an analytical sample and analysis were carried out according to the method described in the same section in the Biological Example 1(1).

A short description of series [3]: Simulation of kinetics in human blood on basis of results of kinetic study in dogs. As to conditions: simulated in humans versus SINEMET 100 mg tablet. Here is the method: (4) Simulation of Kinetics in Human Blood on Basis of Results of Kinetic Study in Dogs
For the purpose of validating whether or not the effect of releasing levodopa over a long period of time of the compound of the present invention observed in the kinetic study in dogs is also observed in humans, a simulation of kinetics in human blood was carried out on the basis of the results of the kinetic study in dogs described in the above section (3).
By using the values obtained in the kinetic study in dog blood in the above section (3), a prediction model that simulates the kinetics in human blood was constructed.
Specifically, the blood concentration-time profile of levodopa or the compound of the present invention obtained in the kinetic study in dogs was input into Phoenix WinNonlin version 6.1 (Pharsight Corporation), which is kinetic analysis software, and the fitting of the plasma concentration of levodopa was carried out, whereby a prediction model that simulates the blood kinetics of levodopa was constructed.
Into this prediction model, the values of blood kinetics when a levodopa preparation was administered to humans described in the literature (Br. J. Clin. Pharm., 1989, Vol. 28, pp. 61-69, D. R. C. Robertson et al.) were input, and the kinetics of the compound of the present invention in human blood was simulated. […]

The next series concerns p53R2. Briefly: Mutagenicity assay using mammalian cells (NESMAGET method). Type of series: cell-based. Here is the method:
In the treatment of Parkinson's disease and/or Parkinson's syndrome, there is a possibility that a levodopa prodrug is continued to be taken over a long period of time of several years to several decades. Therefore, an evaluation was carried out as to whether or not the compound of the present invention has mutagenicity by a mutagenicity assay using mammalian cells.
A mutagenicity assay using mammalian cells was carried out as a commissioning test to be undertaken by Nissin Foods Holdings Co., Ltd. The present method also called NESMAGET method is a method in which the expression of p53R2 which is a DNA repair gene is detected by luciferase activity, and the specific experimental technique is described in JP-A-2005-000024 and Japanese Patent No. 4243716. In the determination as to whether or not the result of this test was positive, the luciferase activity of p53R2 in the case of a vehicle control (0.3% dimethylsulfoxide) was taken as 100%, and a concentration at which a relative luciferase activity exceeded 200% was determined to be “concentration at which mutagenicity was determined to be positive”.

In series [4] the test system is rat model injected with 6-hydroxydopamine into the medial forebrain bundle. Briefly: Rotation test in model injected with 6-hydroxydopamine into medial forebrain bundle. Particulars: 6-OHDA rats. The format is in vivo, rats (male Crl:CD(SD)IGS). From the text: In the experiment, male Crl:CD(SD)IGS rats (Charles River Japan, Inc.) supplied at 5 weeks of age were used. The rats were housed in Econ cages (4 or less rats per cage) and were raised by giving free access to solid feed CRF-1 (Oriental Yeast Co., Ltd.) and tap water (in a water bottle) until they were subjected to the experiment. When acclimation after shipping was completed, each of the Crl:CD(SD)IGS rats at 6 weeks of age was anesthetized with pentobarbital sodium (Somnopentyl (registered trademark) injectable solution, 35 mg/kg, intraperitoneal injection). Subsequently, for the purpose of preventing damage to norepinephrine neurons by 6-hydroxydopamine (6-OHDA), desipramine (25 mg/kg) was intraperitoneally injected, and the rat was held and fixed by a brain fixation device. A small bone window was opened with a hand drill at a desired site, and 6-OHDA was injected into the medial forebrain bundle according to the brain atlas of Paxinos and Watson using a 30 G cannula (Brain Science Idea. Co. Ltd.) with a needle tip cut at an angle of 45° (site of injection: A=−4.5 mm, L=+1.2 mm, and V=−7.8 mm with respect to the bregma, injection amount: 8 μg/4 μL/8 min/site in each case). […] Thereafter, the burr hole was closed with an instant glue, and then sutured and disinfected with iodine tincture. […] In a rotation test, a device configured such that a black plastic circular cylinder having a diameter of 30 cm and a height of 35 cm was placed upright in a black-painted bowl having an opening diameter of 35 cm and a bottom diameter of 17 cm was used (the height of the curve from the bottom of the bowl to the bottom edge of the cylinder was set to 7 cm). The rat was placed in the device (one rat per device) and acclimated to the device for 30 minutes. Thereafter, a test substance was administered to the rat, and the rat was returned to the same device and videotaped. […] As for the number of rotations, a 360° rotation in one direction was determined to be one rotation. In the case where the direction (body's direction of movement or movement direction) was changed during rotation, the rotation was not included in the count. […] Incidentally, in each case, benserazide which is a dopa decarboxylase inhibitor (8 mg/kg) was orally administered concomitantly. […] In addition, the respective values are each a mean of the values obtained using 11 rats in each group and its standard error.

On to `CC(C)(OC(=O)c1ccccc1)C(=O)Oc1ccc(C[C@H](N)C(=O)O)cc1OC(=O)C(C)(C)OC(=O)c1ccccc1.Cl` [Example 5, (2S)-2-Amino-3-(3,4-bis((2-(benzoyloxy)-2-methylpropanoyl)oxy)phenyl)propanoic acid hydrochloride], for which, in series [1], the “AUC (area under the blood concentration-time curve of levodopa)” value came out at 0.89 μg^+ hr/mL. For the same compound, in series [1] (male, beagle), the “Cmax/C6 hr (ratio of maximum plasma concentration and plasma concentration at 6 hours after oral administration, levodopa)” value is 8.0. Also, the “time after administration at which plasma levodopa reached Cmax” value in series [2] was 4 h. In addition, in series [3], the “time in the therapeutic range in humans relative to the currently available levodopa preparation” value is recorded as “about 3.4 times”. Further, the “Mutagenicity assay (NESMAGET) Concentration at which mutagenicity was determined to be positive” value with p53R2 (concentration at which relative luciferase activity of p53R2 exceeded 200% (vehicle control 0.3% dimethylsulfoxide = 100%)) was greater than 200 µg/mL. In addition, the determination of mutagenicity entry in the series on p53R2 (positive = relative luciferase activity of p53R2 exceeded 200%, compound of the present invention up to 200 μg/mL) is recorded as “mutagenicity was not observed”. Further, the “lapse from administration after which the number of rotations began to increase” value in series [4] (oral Example 5 100 mg/kg expressed in terms of levodopa, benserazide 8 mg/kg) is no less than 60 min. In addition, the “time after administration at which the number of rotations reached a maximum value” in series [4] (oral, levodopa 30 mg/kg or Example 5 100 mg/kg expressed in terms of levodopa, benserazide 8 mg/kg) is 140 min. The “maximum value of the number of rotations per 10 minutes” value in series [4] (oral, levodopa 30 mg/kg or Example 5 100 mg/kg expressed in terms of levodopa, benserazide 8 mg/kg concomitantly, N=11) was no less than 90 times.

Values taken from patent US8748485B2, “Compound and medical use thereof” (Ono Pharmaceuticals Co., Ltd., priority 2010, dated 2014).
